Reference: patent US10308629B2, “1H-pyrrol-3-amines” (BAYER PHARMA AKTIENGESELLSCHAFT, priority 2015, dated 2019)

Target: (recombinant) catalytic domain of human Bub1 (amino acids 704-1085) (Homo sapiens (Human), UniProt O43683)
Assay: Bub1 kinase assay (TR-FRET)
Type: biochemical
Details: ATP 10 μM, peptide substrate 1 μM, 60 min at 22° C., read-out: Inhibition of Bub1 kinase IC50
Source text: Bub1-inhibitory activities of compounds described in the present invention were quantified using a time-resolved fluorescence energy transfer (TR-FRET) kinase assay which measures phosphorylation of the synthetic peptide Biotin-Ahx-VLLPKKSFAEPG (SEQ ID No. 1) (C-terminus in amide form), purchased from e.g. Biosyntan (Berlin, Germany) by the (recombinant) catalytic domain of human Bub1 (amino acids 704-1085), expressed in Hi5 insect cells with an N-terminal His6-tag and purified by affinity-(Ni-NTA) and size exclusion chromatography.
In a typical assay 11 different concentrations of each compound (0.1 nM, 0.33 nM, 1.1 nM, 3.8 nM, 13 nM, 44 nM, 0.15 μM, 0.51 μM, 1.7 μM, 5.9 μM and 20 μM) were tested in duplicate within the same microtiter plate. To this end, 100-fold concentrated compound solutions (in DMSO) were previously prepared by serial dilution (1:3.4) of 2 mM stocks in a clear low volume 384-well source microtiter plate (Greiner Bio-One, Frickenhausen, Germany), from which 50 nl of compounds were transferred into a black low volume test microtiter plate from the same supplier. Subsequently, 2 μL of Bub1 (the final concentration of Bub1 was adjusted depending on the activity of the enzyme lot in order to be within the linear dynamic range of the assay: typically ˜200 ng/mL were used) in aqueous assay buffer [50 mM Tris/HCl pH 7.5, 10 mM magnesium chloride (MgCl2), 200 mM potassium chloride (KCl), 1.0 mM dithiothreitol (DTT), 0.1 mM sodium ortho-vanadate, 1% (v/v) glycerol, 0.01% (w/v) bovine serum albumine (BSA), 0.005% (v/v) Trition X-100 (Sigma), 1× Complete EDTA-free protease inhibitor mixture (Roche)] were added to the compounds in the test plate and the mixture was incubated for 15 min at 22° C. to allow pre-equilibration of the putative enzyme-inhibitor complexes before the start of the kinase reaction, which was initiated by the addition of 3 μL 1.67-fold concentrated solution (in assay buffer) of adenosine-tri-phosphate (ATP, 10 μM final concentration) and peptide substrate (1 μM final concentration). The resulting mixture (5 μL final volume) was incubated at 22° C. during 60 min. and the reaction w as stopped by the addition of 5 μL of an aqueous EDTA-solution (50 mM EDTA, in 100 mM HEPES pH 7.5 and 0.2% (w/v) bovine serum albumin) which also contained the TR-FRET detection reagents (0.2 μM streptavidin-XL665 [Cisbio Bioassays, Codolet, France] and 1 nM anti-phosho-Serine antibody [Merck Millipore, cat. #35-002] and 0.4 nM LANCE EU-W1024 labeled anti-mouse IgG antibody [Perkin-Elmer, product no. AD0077, alternatively a Terbium-cryptate-labeled anti-mouse IgG antibody from Cisbio Bioassays can be used]). The stopped reaction mixture was further incubated 1 h at 22° C. in order to allow the formation of complexes between peptides and detection reagents. Subsequently, the amount of product was evaluated by measurement of the resonance energy transfer from the Eu-chelate-antibody complex recognizing the Phosphoserine residue to the streptavidin-XL665 bound to the biotin moiety of the peptide. To this end, the fluorescence emissions at 620 nm and 665 nm after excitation at 330-350 nm were measured in a TR-FRET plate reader, e.g. a Rubystar or Pherastar (both from BMG Labtechnologies, Offenburg, Germany) or a Viewlux (Perkin-Elmer) and the ratio of the emissions (665 nm/622 nm) was taken as indicator for the amount of phosphorylated substrate. The data were normalised using two sets of control wells for high−(=enzyme reaction without inhibitor=0%=Minimum inhibition) and low−(=all assay components without enzyme=100%=Maximum inhibition) Bub1 activity. IC50 values were calculated by fitting the normalized inhibition data to a 4-parameter logistic equation (Minimum, Maximum, IC50, Hill; Y=Max+(Min−Max)/(1+(X/IC50)Hill)).

Sequence of (recombinant) catalytic domain of human Bub1 (amino acids 704-1085) (O43683 704-1085): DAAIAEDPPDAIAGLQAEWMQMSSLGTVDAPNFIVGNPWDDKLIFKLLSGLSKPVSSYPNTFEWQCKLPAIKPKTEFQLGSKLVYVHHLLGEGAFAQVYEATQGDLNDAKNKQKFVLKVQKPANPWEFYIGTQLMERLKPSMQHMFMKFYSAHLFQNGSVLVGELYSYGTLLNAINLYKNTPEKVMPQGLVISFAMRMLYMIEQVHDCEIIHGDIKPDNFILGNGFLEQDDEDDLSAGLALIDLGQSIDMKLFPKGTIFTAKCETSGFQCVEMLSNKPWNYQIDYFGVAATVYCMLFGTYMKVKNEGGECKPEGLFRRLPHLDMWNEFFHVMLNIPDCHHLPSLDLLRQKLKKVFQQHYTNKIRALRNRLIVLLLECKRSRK

| Molecule | IC50 [nM] |
| --- | --- |
| (4aS,5aS or 4aR,5aR)-5a-Methyl-3-(phenylamino)-2-(pyridin-4-yl)-4a,5,5a,6-tetrahydrocyclopropa[f]indol-4(1H)-one [Example 18] | 6 |
| N-{4-[[(4aS,5aS) or (4aR,5aR)]-3-anilino-5a-methyl-4-oxo-1,4,4a,5,5a,6-hexahydrocyclopropa[f]indol-2-yl]pyridin-2-yl}-3-fluoro-4-methoxybenzamide [Example 51] | 12 |
| Cc1ccc(=O)c2c(Nc3ccccc3)c(-c3ccnc(N)c3)[nH]c2c1 [Example 23, 2-(2-Aminopyridin-4-yl)-7-methyl-3-(phenylamino)cyclohepta[b]pyrrol-4(1H)-one] | 26 |
| (4aR,5aR or 4aS,5aS)-3-(Phenylamino)-2-(pyridin-4-yl)-4a,5,5a,6-tetrahydrocyclopropa[f]indol-4(1H)-one [Example 13] | 19 |
| Cn1ccc(C(=O)Nc2cc(-c3[nH]c4c(c3Nc3ccccc3)C(=O)[C@H]3C[C@@]3(C)C4=O)ccn2)n1 (relative stereo) [Example 34, 1-Methyl-N-4-[rel-(4aS,5aR)-5a-methyl-4,6-dioxo-3-(phenylamino)-1,4,4a,5,5a,6-hexahydrocyclopropa[f]indol-2-yl]pyridin-2-yl-1H-pyrazole-3-carboxamide] | 35 |
| O=C1CCCCc2[nH]c(-c3ccncc3)c(Nc3ccccc3)c21 [Example 22, 3-(Phenylamino)-2-(pyridin-4-yl)-5,6,7,8-tetrahydrocyclohepta[b]pyrrol-4(1H)-one] | 6 |
| 2-Fluoro-2-methyl-N-4-[[(4aR,5aR) or (4aS,5aS)]-5a-methyl-4-oxo-3-(phenylamino)-1,4,4a,5,5a,6-hexahydrocyclopropa[f]indol-2-yl]pyridin-2-ylpropanamide [Example 41] | 53 |
| N-4-[(4aS,5aS or 4aR,5aR)-5a-Methyl-4-oxo-3-(phenylamino)-1,4,4a,5,5a,6-hexahydrocyclopropa[f]indol-2-yl]pyridin-2-ylacetamide [Example 20] | 36 |
